According to publication PMC6199744, “Development of Chemical Proteomics for the Folateome and Analysis of the Kinetoplastid Folateome” (ACS Infectious Diseases, 2018):
Read-outs that look alike come from different tables or passages of the source.

What was measured:
Assay type in all cases: binding
[1] = target: T1, HeLa cell extract proteins (Homo sapiens, UniProt O15260)
T1 construct: endogenous in cells; host or cells: HeLa cell extract

[2] = target: T2, HeLa cell extract proteins (Homo sapiens, UniProt P09496)
T2 construct: endogenous in cells; host or cells: HeLa cell extract
T2 sequence (P09496 1-248): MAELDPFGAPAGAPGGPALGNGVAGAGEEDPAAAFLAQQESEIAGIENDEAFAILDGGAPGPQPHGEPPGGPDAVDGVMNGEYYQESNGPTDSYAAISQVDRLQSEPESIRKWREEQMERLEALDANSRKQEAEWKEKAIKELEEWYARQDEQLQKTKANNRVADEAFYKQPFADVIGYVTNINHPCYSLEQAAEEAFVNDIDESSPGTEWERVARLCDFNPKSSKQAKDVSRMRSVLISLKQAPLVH

[3] = target: T3, HeLa cell extract proteins (Homo sapiens, UniProt P09497)
T3 construct: endogenous in cells; host or cells: HeLa cell extract
T3 sequence (P09497 1-229): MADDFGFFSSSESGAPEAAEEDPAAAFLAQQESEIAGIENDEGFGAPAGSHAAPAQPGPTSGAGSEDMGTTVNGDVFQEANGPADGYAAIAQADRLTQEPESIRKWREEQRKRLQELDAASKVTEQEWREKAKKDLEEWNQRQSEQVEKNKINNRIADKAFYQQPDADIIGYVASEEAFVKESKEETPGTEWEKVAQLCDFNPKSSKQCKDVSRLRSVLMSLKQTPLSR

[4] = target: T4, HeLa cell extract proteins (Homo sapiens, UniProt P33991)
T4 construct: endogenous in cells; host or cells: HeLa cell extract
T4 sequence (P33991 1-863): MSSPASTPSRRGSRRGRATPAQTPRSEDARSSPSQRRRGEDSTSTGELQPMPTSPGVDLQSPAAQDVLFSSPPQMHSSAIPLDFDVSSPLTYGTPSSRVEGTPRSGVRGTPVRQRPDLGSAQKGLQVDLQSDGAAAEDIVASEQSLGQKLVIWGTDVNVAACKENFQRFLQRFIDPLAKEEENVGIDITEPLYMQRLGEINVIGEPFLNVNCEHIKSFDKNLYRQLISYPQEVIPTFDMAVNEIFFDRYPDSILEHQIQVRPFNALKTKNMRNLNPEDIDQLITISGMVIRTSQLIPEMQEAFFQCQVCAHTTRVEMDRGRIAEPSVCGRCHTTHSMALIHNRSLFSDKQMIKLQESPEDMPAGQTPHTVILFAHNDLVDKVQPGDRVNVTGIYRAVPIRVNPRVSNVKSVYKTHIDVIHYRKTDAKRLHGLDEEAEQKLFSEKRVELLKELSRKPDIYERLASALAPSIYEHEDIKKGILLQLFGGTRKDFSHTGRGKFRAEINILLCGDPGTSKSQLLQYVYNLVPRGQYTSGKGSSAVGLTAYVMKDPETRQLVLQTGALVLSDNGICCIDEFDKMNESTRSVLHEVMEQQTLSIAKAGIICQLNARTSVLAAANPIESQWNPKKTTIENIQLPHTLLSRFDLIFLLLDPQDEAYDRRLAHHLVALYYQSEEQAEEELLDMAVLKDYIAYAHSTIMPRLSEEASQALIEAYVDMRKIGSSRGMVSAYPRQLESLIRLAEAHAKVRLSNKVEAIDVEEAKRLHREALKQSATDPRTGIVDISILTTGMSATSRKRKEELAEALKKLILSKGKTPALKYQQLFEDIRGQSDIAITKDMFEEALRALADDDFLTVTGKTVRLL

[5] = target: T5, HeLa cell extract proteins (Homo sapiens, UniProt P35680)
T5 construct: endogenous in cells; host or cells: HeLa cell extract
T5 sequence (P35680 whole entry): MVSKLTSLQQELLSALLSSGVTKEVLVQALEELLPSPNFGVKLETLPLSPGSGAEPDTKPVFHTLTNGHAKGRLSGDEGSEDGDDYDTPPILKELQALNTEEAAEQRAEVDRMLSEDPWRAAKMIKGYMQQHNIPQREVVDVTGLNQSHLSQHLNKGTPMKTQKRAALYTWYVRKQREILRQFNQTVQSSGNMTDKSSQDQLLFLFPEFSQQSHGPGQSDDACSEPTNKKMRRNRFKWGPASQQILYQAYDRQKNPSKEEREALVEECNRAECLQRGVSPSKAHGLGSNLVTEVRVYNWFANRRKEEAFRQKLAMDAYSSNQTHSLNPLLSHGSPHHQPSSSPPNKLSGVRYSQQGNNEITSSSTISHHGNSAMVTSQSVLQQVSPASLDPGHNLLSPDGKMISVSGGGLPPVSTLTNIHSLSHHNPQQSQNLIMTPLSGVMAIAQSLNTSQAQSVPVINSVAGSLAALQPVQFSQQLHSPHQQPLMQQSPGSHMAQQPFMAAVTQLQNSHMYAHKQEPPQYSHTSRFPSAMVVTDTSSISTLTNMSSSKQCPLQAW

[6] = target: T6, HeLa cell extract proteins (Homo sapiens, UniProt P41252)
T6 construct: endogenous in cells; host or cells: HeLa cell extract
T6 sequence (P41252 1-1262): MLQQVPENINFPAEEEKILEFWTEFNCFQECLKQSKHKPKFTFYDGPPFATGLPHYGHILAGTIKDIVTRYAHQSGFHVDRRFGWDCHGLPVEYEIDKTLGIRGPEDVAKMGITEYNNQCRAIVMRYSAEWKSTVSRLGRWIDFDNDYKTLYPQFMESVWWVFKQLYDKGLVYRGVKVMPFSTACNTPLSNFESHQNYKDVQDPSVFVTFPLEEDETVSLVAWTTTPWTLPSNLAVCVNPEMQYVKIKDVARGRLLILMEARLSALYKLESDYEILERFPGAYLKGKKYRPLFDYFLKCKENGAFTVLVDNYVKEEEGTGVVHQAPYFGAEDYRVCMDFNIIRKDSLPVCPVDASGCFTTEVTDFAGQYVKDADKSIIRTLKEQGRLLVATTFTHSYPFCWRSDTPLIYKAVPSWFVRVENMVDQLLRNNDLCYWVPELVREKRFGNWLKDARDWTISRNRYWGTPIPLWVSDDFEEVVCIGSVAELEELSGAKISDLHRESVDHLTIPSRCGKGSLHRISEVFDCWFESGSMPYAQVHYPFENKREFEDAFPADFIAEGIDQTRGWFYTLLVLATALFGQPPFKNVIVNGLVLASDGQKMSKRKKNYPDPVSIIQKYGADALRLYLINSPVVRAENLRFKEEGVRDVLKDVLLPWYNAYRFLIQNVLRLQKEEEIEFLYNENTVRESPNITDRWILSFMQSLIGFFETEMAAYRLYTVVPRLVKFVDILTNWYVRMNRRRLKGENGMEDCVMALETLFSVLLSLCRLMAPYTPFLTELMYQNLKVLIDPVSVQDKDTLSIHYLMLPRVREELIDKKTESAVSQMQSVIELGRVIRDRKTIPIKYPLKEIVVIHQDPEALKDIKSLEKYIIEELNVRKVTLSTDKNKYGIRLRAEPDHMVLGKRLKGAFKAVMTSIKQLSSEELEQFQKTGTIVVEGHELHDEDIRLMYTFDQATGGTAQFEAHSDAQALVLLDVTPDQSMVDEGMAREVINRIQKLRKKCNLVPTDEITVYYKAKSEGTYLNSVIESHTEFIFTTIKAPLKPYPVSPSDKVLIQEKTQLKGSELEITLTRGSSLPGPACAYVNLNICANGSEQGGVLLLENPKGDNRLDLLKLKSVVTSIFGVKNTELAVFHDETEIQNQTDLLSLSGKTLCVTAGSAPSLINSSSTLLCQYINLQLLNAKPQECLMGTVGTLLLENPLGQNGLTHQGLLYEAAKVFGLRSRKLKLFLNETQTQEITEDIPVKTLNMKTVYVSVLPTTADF

[7] = target: T7, HeLa cell extract proteins (Homo sapiens, UniProt P49189)
T7 construct: endogenous in cells; host or cells: HeLa cell extract
T7 sequence (P49189 whole entry): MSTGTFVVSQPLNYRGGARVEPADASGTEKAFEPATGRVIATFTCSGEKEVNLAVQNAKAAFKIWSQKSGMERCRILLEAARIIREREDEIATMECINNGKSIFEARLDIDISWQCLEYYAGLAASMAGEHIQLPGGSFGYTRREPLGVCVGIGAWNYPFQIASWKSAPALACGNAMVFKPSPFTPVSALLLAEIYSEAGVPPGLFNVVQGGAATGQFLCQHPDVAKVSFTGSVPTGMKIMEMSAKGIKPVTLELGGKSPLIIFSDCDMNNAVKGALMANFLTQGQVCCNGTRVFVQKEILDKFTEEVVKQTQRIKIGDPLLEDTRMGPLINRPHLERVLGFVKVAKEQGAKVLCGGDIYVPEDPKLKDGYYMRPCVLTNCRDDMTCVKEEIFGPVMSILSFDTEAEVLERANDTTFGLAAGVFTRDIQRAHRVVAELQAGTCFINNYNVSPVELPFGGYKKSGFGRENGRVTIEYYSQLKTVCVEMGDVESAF

[8] = target: T8, HeLa cell extract proteins (Homo sapiens, UniProt Q00610)
T8 construct: endogenous in cells; host or cells: HeLa cell extract
T8 sequence (Q00610 whole entry): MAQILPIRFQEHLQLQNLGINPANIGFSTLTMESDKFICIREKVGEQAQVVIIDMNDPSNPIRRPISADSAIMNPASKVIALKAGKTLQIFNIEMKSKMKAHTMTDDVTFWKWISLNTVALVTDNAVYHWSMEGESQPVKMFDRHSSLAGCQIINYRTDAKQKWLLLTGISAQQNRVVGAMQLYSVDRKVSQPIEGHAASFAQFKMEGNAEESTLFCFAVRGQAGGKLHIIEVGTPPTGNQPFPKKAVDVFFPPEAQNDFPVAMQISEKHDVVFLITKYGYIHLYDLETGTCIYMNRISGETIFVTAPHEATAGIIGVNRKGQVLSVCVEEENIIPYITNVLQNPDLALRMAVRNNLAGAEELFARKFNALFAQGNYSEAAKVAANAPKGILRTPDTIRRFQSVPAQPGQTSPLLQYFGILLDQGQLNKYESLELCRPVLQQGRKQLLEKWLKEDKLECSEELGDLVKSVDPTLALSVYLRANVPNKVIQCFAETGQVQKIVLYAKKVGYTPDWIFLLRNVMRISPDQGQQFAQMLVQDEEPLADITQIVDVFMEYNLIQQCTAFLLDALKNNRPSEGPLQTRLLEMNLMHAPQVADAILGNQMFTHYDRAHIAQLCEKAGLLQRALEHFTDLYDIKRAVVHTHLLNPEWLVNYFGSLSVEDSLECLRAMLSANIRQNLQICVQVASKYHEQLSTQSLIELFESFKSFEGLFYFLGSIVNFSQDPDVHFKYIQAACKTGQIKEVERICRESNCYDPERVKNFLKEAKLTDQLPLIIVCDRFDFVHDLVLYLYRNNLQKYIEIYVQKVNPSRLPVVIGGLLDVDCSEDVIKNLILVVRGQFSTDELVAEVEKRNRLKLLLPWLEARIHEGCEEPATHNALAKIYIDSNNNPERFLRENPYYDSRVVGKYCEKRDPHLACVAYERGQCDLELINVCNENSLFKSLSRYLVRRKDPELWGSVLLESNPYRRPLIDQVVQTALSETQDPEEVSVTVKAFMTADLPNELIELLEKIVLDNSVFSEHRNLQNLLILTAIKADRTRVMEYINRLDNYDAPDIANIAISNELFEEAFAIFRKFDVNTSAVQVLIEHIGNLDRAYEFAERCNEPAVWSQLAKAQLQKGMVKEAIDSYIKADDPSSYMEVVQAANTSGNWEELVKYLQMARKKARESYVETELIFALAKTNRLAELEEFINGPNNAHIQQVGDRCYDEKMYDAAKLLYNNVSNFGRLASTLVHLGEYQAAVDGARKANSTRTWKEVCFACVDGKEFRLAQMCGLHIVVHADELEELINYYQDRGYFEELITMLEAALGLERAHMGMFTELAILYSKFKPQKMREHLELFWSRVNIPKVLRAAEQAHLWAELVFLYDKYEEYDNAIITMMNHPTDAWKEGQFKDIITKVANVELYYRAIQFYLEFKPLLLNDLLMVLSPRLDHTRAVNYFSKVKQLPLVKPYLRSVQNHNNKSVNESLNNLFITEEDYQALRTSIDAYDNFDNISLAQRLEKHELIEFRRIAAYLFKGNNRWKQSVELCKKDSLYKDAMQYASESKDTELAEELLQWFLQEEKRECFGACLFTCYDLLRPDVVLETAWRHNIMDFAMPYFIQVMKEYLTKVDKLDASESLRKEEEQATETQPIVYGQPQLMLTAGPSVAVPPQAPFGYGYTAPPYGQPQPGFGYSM

[9] = HeLa, protein CLTC (ISOFORM 1 OF CLATHRIN HEAVY CHAIN 1)

T1 sequence (O15260 whole entry): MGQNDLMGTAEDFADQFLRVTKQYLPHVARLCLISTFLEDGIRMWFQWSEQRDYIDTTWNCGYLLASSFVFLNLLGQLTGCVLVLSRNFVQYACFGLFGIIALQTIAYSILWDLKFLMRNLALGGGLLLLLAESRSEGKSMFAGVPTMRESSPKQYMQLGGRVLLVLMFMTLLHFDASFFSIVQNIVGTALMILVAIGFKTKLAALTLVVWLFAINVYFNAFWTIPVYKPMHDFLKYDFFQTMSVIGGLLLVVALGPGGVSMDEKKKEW

Row | Structure (SMILES) | fold changes relative to vehicle control ([1]; HeLa, captured protein SURF4) | fold changes relative to vehicle control ([2]; HeLa, captured protein CLTA) | fold changes relative to vehicle control ([3]; HeLa, captured protein CLTB) | fold changes relative to vehicle control ([4]; protein MCM4, HeLa) | fold changes relative to vehicle control ([5]; HeLa, protein HNF1B) | fold changes relative to vehicle control ([6]; HeLa, captured protein IARS) | fold changes relative to vehicle control ([7]; HeLa, captured protein ALDH9A1) | fold changes relative to vehicle control [8, 9] | fold changes relative to vehicle control ([1]; captured protein SURF4, HeLa) | fold changes relative to vehicle control ([2]; HeLa, protein CLTA) | fold changes relative to vehicle control ([3]; HeLa, protein CLTB) | fold changes relative to vehicle control ([5]; captured protein HNF1B, HeLa) | fold changes relative to vehicle control ([6]; HeLa, protein IARS) | fold changes relative to vehicle control ([7]; protein ALDH9A1, HeLa) | fold changes relative to vehicle control ([8]; protein CLTC, HeLa) | further results
1 | Nc1nc2c(c(=O)[nH]1)N(C=O)C(CNc1ccc(C(=O)N[C@@H](CCC(=O)O)C(=O)O)cc1)CN2 (some centres unmarked) [LEU, leucovorin] | 0.86 | 1.19 | 0.99 | 0.87 | 0.87 | 1.01 | 0.9 | 1.27 | – | – | – | – | – | – | – | –
2 | Nc1nc2[nH]cc(CCc3ccc(C(=O)N[C@@H](CCC(=O)O)C(=O)O)cc3)c2c(=O)[nH]1 [PTX, pemetrexed] | – | – | – | – | – | – | – | – | – | – | – | – | – | – | – | fold changes relative to vehicle control [1]: 0.9; fold changes relative to vehicle control [2]: 1.55; fold changes relative to vehicle control [3]: 1.2; fold changes relative to vehicle control [4]: 0.96; fold changes relative to vehicle control [5]: 0.82; fold changes relative to vehicle control [6]: 0.96; fold changes relative to vehicle control [7]: 1.02; fold changes relative to vehicle control [8]: 1.24
3 | CCCCCCOc1ccc(Cc2cnc(N)nc2N)cc1 [compound 1] | – | – | – | 1.11 | – | – | – | – | 0.9 | 0.68 | 0.82 | 0.64 | 1.15 | 1 | 0.83 | –
4 | CCCCCCOc1cccc(Cc2cnc(N)nc2N)c1 [compound 2] | – | – | – | 1.59 | – | – | – | – | 1 | 0.99 | 1.18 | 1.01 | 1.22 | 1.01 | 1.07 | –
5 | Nc1nc2cccc(-c3ccccc3)c2n1Cc1ccc(Cl)c(Cl)c1 [compound 3] | – | – | – | 0.9 | – | – | – | – | 1.03 | 1.09 | 0.94 | 1 | 1.28 | 1.08 | 1.2 | –
6 | NCCOCCOCC(=O)Nc1nc2ncc(CNc3ccc(C(=O)NC(CCC(=O)O)C(=O)O)cc3)nc2c(=O)[nH]1 (centres unmarked) [compound 6] | 0.95 | 1.48 | 1.23 | 1.08 | 0.81 | 1.03 | 0.92 | 1.11 | – | – | – | – | – | – | – | –
7 | NCCCNc1ccc(C(=O)NC(CCC(=O)O)C(=O)O)cc1 (centres unmarked) [compound 7] | 0.92 | 1.4 | 1.14 | 0.93 | 1.07 | 1.1 | 0.98 | 1.18 | – | – | – | – | – | – | – | –
